Values quoted from earlier work as cited in patent US20140271704A1, “METHODS OF PRODUCING NUTRITIONAL SUPPLEMENTS USING MUSHROOMS FROM THE SPECIES Poria cocos OR Flammulina velutipes” (JARROW FORMULAS, INC., priority 2013, published 2014).

Experiments:
[1] = tested on: homocysteine; details: human; compared with racemic mixtures of equal amounts of L- and D-isomer
[2] = oral, animal

Structure (SMILES)	reduction of homocysteine versus racemic mixture [1]	absorption from the intestinal tract [2]
CN1c2c(nc(N)[nH]c2=O)NCC1CNc1ccc(C(=O)N[C@@H](CCC(=O)O)C(=O)O)cc1 (single isomer, unassigned) [L-isomer of 5-MTHF, 5-methyltetrahydrofolate]	superior to racemic mixtures	–
CN1c2c(nc(N)[nH]c2=O)NCC1CNc1ccc(C(=O)N[C@@H](CCC(=O)O)C(=O)O)cc1 (some centres unmarked) [5-MTHF, 5-methyltetrahydrofolate]	–	readily absorbed from the intestinal tract without degradation
